Patent publication US20250135006A1, “AMPHIPHILIC TLR7/8 ADJUVANTS AND USES THEREOF” (Pfizer Inc., priority 2023, published 2025)
Where two headings read alike, the source gives them in different places.

What was measured:
[1] = Lymph node localization of AMP adjuvants in female BALB/c mice (LC-MS); assay type: in vivo; conditions: mouse, 2 nmol intramuscular; for concentration at 4 h: 4 h post injection; for concentration at 48 h: 48 h post injection
Experimental: Test compounds were prepared at a concentration of 40 uM in phosphate-buffered saline (pH 7.4)+0.1% polysorbate 80, and 50 uL (2 nmol) of each was administered by intramuscular injection into the right hind leg muscle (gastrocnemius) of female BALB/c mice. Lymph nodes (popliteal, inguinal) were collected from 5 mice per group at 4 h and 48 h post injection, snap frozen in liquid nitrogen, and stored at −80C until analysis. Blood was also collected via cardiac puncture at 4 h and 48 h post injection and centrifuged in EDTA-coated tubes to yield plasma which was stored at −80C until analysis. AMP adjuvant concentrations in each sample were quantified by liquid chromatography-mass spectrometry (LC-MS).
A standard curve containing the test compound was prepared in control mouse plasma before extraction with protein precipitation. Muscle samples were weighed and diluted in 4× 60:40 Isopropanol (IPA):Water. Lymph node samples were assumed to be 1 mg and were diluted 50× in […] 60:40 IPA:Water. Zirconium beads were added to tissue samples, followed by shaking in a bead beater to yield tissue homogenate. For plasma analysis, 20 ml of test sample or standard was added followed by 120 ml of acetonitrile containing internal standard (Simvastatin at 300 ng/ml). Tissue homogenate was prepared for analysis using a mixed matrix approach where test tissue samples (20 ml) were matrix matched with control plasma, and a plasma standard curve was matrixed matched with control mouse tissue. Internal standard was added as described above. Samples were vortexed for 1 min, then centrifuged at 3000 rpm for 5 min. 50 ml of supernatant was removed and transferred to a clean 96 well block, 150 ml of 0.1% formic acid in water was added, block was vortexed, centrifuged and 15 ml was injected on the LC/MS for analysis.
An initial mobile phase composition of 5% B was ramped to 95% in 2.0 minutes, held at 95% for 0.3 minutes, and then returned to initial 5% B for 0.3 minutes re-equilibration. The total analysis time for each sample was 3 minutes.
Data was collected on an AB Sciex API6500 (QTRAP) mass spectrometer using positive Turbo IonSpray™ electrospray ionization (ESI) and multiple reaction monitoring (MRM) mode. Typical source conditions, heated capillary temperature, gas1, gas2, and curtain gas were set at 600C, 50, 50, and 10 respectively. Transitions for Compound 1, Compound 2, and internal standard Simvastatin were m/z 1129® 923 for Compound 1, m/z 1172® 956 for Compound 2 and m/z 419® 285 for internal standard Simvastatin respectively. Data acquisition and processing was carried out with Analyst software version 1.7.

[2] = test system: S. pneumoniae serotype 3; assay type: in vivo, female Swiss-Webster mice; conditions: mouse
[3] = inguinal lymph node, read-out: concentration in the inguinal lymph node
[4] = plasma, read-out: concentration in plasma
[5] = popliteal lymph node, read-out: concentration in the popliteal lymph node

CCCCc1nc2c(N)nc3cc(CCCN4CCN(C(=O)CCOCCOCCOCCOCCOCCOCCOCCOCCOCCOCCOCCOCCOCCOCCOCCOCCOCCOCCOCCOCCOCCOCCOCCOCCNC(=O)CCOCCOCCOCCOCCNC(=O)CCCOc5c(C)c(C)c6c(c5C)CC[C@@](C)(CCC[C@H](C)CCC[C@H](C)CCCC(C)C)O6)CC4)ccc3c2n1CC(C)(CO)CO [Compound 2, N-{75-[4-(3-{4-amino-2-butyl-1-[3-hydroxy-2-(hydroxymethyl)-2-methylpropyl]-1H-imidazo[4,5-c]quinolin-7-yl}propyl)piperazin-1-yl]-75-oxo-3,6,9,12,15,18,21,24,27,30,33,36,39,42,45,48,51,54,57,60,63,66,69,72-tetracosaoxapentaheptacont-1-yl}-17-oxo-20-({(2R)-2,5,7,8-tetramethyl-2-[(4R,8R)-4,8,12-trimethyltridecyl]-3,4-dihydro-2H-chromen-6-yl}oxy)-4,7,10,13-tetraoxa-16-azaicosan-1-amide] gave a concentration at 4 h [1, 3] of 16600 ± 6920 ng/g, a concentration at 48 h [1, 3] of 17000 ± 3320 ng/g and a concentration at 4 h [1, 4] of 1100 ± 305 ng/mL. The concentration at 48 h [1, 4] was less than 25 ng/mL, the concentration at 4 h [1, 5] was 35300 ± 16800 ng/g and the concentration at 48 h [1, 5] was 23200 ± 7820 ng/g. The “OPA geometric mean titers (GMT)” value ([2]; 0.1 μg S. pneumoniae serotype 3-CRM197 antigen with adjuvant (2 nmol; AlPO4 100 μg), IM weeks 0 and 3, sera week 5) was 610 and the “OPA geometric mean titers compared with reference adjuvants” value ([2]; S. pneumoniae serotype 3 antigen, versus aluminum phosphate and free TLR 7/8 agonist) was “higher average OPA geometric mean titers than aluminum phosphate, as well as the free TLR 7/8 agonist molecule”.
